From patent US20240299486A1, “ADDRESSING INJECTION SITE REACTIONS ASSOCIATED WITH THE ADMINISTRATION OF ELAMIPRETIDE” (STEALTH BIOTHERAPEUTICS INC., priority 2022, published 2024) come the findings set out here.

Where only a bound is given, the exact number is not on record here.

In series [1] the test system is healthy subjects. In words: Phase 1 crossover study: clinically assessed injection site reactions. As to the method: • This Phase 1, open-label, 6-arm crossover study included 10 healthy subjects ≥18 and ≤65 years of age. • All subjects received 60 mg of SQ elamipretide to alternating quadrants of the abdomen on each of 6 occasions (FIG. 3), with or without the interventions listed in Table 2. • For each treatment arm, ISR clinical and self-assessments were performed pre-elamipretide administration and at 0.5, 1, 2, 4, 6, 12, 24, and 48 hours after each elamipretide dose. • Blood samples for plasma concentrations of elamipretide and its metabolites were also collected pre-dose and at 0.25, 0.5, 1, 2, 4, and 6 hours post-elamipretide dose. • Primary endpoints consisted of comparisons of the grading from the clinical assessments and the self-assessments of each ISR parameter following administration of elamipretide with each separate intervention versus that of elamipretide alone. • Secondary endpoints consisted of comparison of various pharmacokinetic (PK) parameters and adverse events following administration of elamipretide with each separate intervention versus that of elamipretide alone.
After the screening period (up to 28 days) in this phase 1, open-label, 4-week, 6-part, crossover study, all eligible subjects received 60 mg (0.75 mL) of SC elamipretide to alternating quadrants of the abdomen on each of 6 occasions, with or without potential ISR interventions. The first treatment arm (Arm 1) commenced on Day 1 with administration of elamipretide only, followed by the remaining treatment arms (Arms 2-6) with the following potential mitigations: mometasone furoate, 0.1% ointment, applied once under a hydrocolloid occlusive dressing (DuoDERM Extra Thin) 7 days prior to elamipretide administration (Arm 2); ice application at the elamipretide injection site 5 minutes pre- and post-drug administration (Arm 3); tacrolimus 0.1% ointment applied 15 minutes pre-drug dosing (Arm 4); doxepin 5% cream applied 15 minutes pre-elamipretide administration (Arm 5); and diphenhydramine 50 mg orally taken 2 hours prior to administration (Arm 6). For each treatment arm, blood samples for plasma concentrations of elamipretide and its metabolites were collected pre-dose and at 0.25, 0.5, 1, 2, 4, and 6 hours post-elamipretide dose. Vital signs were recorded pre-dose and at 0.5 and 6 hours post-elamipretide administration. ISR clinical and self-assessments were performed pre-elamipretide administration and at 0.5, 1, 2, 4, 6, 12, 24, and 48 hours after each elamipretide dose. Injection sites were photographed at 0.5, 1, 2, 4, and 12 hours post-elamipretide dose.
The primary endpoints of this study were comprised of the following efficacy measures: clinical assessments and subject self-assessments. Specifically, the primary endpoints consisted of comparisons of the grading of each ISR parameter following administration of elamipretide with each separate intervention versus the grading of each ISR parameter following administration of elamipretide alone. For clinical assessments, the clinical staff used a standard procedure adapted from the Division of Aids Table for Grading the Severity of Adult and Pediatric Adverse Events to score pain, erythema, induration, and pruritus using a 4-point scale based on severity (0=None, 1=Mild, 2=Moderate, 3=Severe, 4=Potentially Life Threatening). The self-assessments were based on a questionnaire to determine how bothered the patient was following each injection of elamipretide and included the following parameters: pain, burning sensation, cold sensation, itching, redness, swelling, and bruising.
All statistical analyses were performed using SAS GRID Linux/SAS Studio (Version 9.4, or higher). PK parameters for elamipretide and its metabolites, M1 and M2, were summarized using descriptive statistics.

For series [2], the target named is mouse ortholog Mrgprb2 (Mus musculus, UniProt Q3KNA1). The conditions noted are these: HEK293 cells transfected with mouse ortholog Mrgprb2. How it is done: A clonal HEK293 cell line stably expressing human MRGPRX2 and Galpha15 was used for the assay, which was performed using a fluorescent plate reader. Cells were plated at 40,000 cells per well in a glass-bottom 96 well plate 20 hours before the assay. Cells were loaded with N-[4-[6-[(Acetyloxy)methoxy]-2,7-difluoro-3-oxo-3H-xanthen-9-yl]-2-[2-[2-[bis[2-[(acetyloxy)methoxy]-2-oxoethyl]amino]-5-methylphenoxy]ethoxy]phenyl]-N-[2-[(acetyloxy)methoxy]-2-oxoethyl]glycine (acetyloxy)methyl ester (Fluo-4 AM) for 45 minutes at 37° C. and allowed to rest for 30 minutes before use. Baseline fluorescence was calculated as the average of a 30 second read, with data points taken at 5 second intervals. Response was defined as the maximum signal within 90 seconds after addition of elamipretide, subtracted by the baseline fluorescence signal. Concentrations were tested in duplicate and the assay was run 6 times. The curve was calculated as a four-parameter non-linear fit with variable slope. Traces were obtained using the same cell line and same Fluo-4 AM loading protocol but were imaged using a fluorescence microscope using a standard fluorescein isothiocyanate (FITC) filter. Fluorescence for different cells was calculated using region of interest selections.
mouse ortholog Mrgprb2, sequence (Q3KNA1 whole entry): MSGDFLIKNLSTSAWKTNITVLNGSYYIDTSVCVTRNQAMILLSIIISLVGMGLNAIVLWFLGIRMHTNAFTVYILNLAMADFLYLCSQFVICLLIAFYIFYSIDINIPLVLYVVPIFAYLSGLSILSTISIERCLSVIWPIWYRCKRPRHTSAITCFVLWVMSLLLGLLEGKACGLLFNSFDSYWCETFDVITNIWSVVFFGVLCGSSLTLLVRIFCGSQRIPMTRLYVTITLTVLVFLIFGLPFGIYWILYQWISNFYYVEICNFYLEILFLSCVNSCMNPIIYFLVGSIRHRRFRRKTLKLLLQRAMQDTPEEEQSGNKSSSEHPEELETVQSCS
A calcium-based readout of receptor activity was used to determine whether elamipretide activates human MRGPRX2 and its mouse ortholog Mrgprb2. […]

Series [3] deals with untransfected cells. In words: Fluo-4 calcium assay in untransfected HEK293 cells. The conditions noted are these: untransfected cells (data not shown). It is filed as cell-based, human.
Series [4] addresses T1, MRGPRX2 receptor (Homo sapiens, UniProt Q96LB1).
T1 construct: host or cells: Chem-1 cells (G418-selected)
T1 sequence (Q96LB1 1-330): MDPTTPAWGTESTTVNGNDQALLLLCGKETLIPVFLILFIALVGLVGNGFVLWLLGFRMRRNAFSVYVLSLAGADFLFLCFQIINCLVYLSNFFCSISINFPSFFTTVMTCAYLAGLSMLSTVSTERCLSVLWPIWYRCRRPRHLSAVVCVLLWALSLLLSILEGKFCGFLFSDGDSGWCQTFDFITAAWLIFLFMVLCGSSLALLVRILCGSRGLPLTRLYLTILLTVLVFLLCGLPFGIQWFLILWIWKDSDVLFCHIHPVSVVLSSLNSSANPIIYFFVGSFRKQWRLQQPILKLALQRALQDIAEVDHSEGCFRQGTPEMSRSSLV
As to the kind of experiment: Fluo-4 calcium assay in MRGPRX2 expressing Chem-1 cells. The conditions noted are these: Chem-1 cells, Fluo-4. The series is classed as cell-based.

For series [5], the system named is control (non-MRGPRX2 expressing) Chem-1 cells. The conditions noted are these: parent Chem-1 cells, Fluo-4.
Description: MRGPRX2 expressing and control (non-MRGPRX2 expressing) Chem-1 cells lines were obtained from Discovery Services, EuroFins. Cells were cultured in Dulbecco's Modified Eagle Medium (DMEM) high glucose medium (4.5 g/L) with 10% fetal bovine serum (FBS), non-essential amino acids, and N-2-hydroxyethylpiperazine-N′-2-ethanesulfonic acid (HEPES) buffer (pH 7.0-7.6). Geneticin (G418) was used for selection of MRGPRX2-expressing Chem-1 cells. Cells were maintained at 37° C. at 5% CO2. Cells were seeded to a glass bottom 96-well plates at a density of 50,000 per well (Cellvis). Cells were loaded with Fluo-4 AM for 30 minutes at 37° C. at a concentration of 2.5 μM. Cells were washed once with Dulbecco's phosphate buffered saline (DPBS). Cells were rested at room temperature for 30 minutes before use and washed with DPBS. Cells were resuspended in 50 μl phosphate buffered saline (PBS) with calcium and magnesium. […] Plates were read immediately with a Biotek plate reader. Readings were taken every 6 seconds for 2 minutes.
Series [6] has as its system non-human primates. To be noted: long term toxicology studies.
Where [7] appears, read: 60 mg SQ elamipretide with or without the intervention, across all timepoints, all participants, n = 80.

Regarding `Cc1cc(O)cc(C)c1C[C@H](NC(=O)[C@H](N)CCCNC(=N)N)C(=O)N[C@@H](CCCCN)C(=O)N[C@@H](Cc1ccccc1)C(N)=O` (stereo in doubt) [Elamipretide, H-D-Arg-2′,6′Dmt-Lys-Phe-NH2], in series [1] (setting [7]), the “Clinically assessed Erythema or redness, (%) of Reported Reactions” value is “(26.3) %”; the “Clinically assessed Erythema or redness, Number of Reported Reactions” value is listed as 21; the “Clinically assessed Induration or swelling, (%) of Reported Reactions” value is on record as “(20.0) %”; the “Clinically assessed Induration or swelling, Number of Reported Reactions” value amounted to 16. Also, in series [1] (setting [7]), the “Clinically assessed Pain or tenderness, (%) of Reported Reactions” value is “(11.3) %”; the “Clinically assessed Pain or tenderness, Number of Reported Reactions” value was 9; the “Clinically assessed Pruritis, (%) of Reported Reactions” value is reported as “(17.5) %”; the “Clinically assessed Pruritis, Number of Reported Reactions” value was 14. The “time post-dose after which bruising appeared to form” value in series [1] (injection site photographs, in those affected) was > 12 h. Besides, in series [1] (injection site photographs, with the exception of bruising), the “time post-dose at which ISRs captured on the photographs were resolving” value is 4 h. In addition, in series [2], the “Fluo-4 fluorescence after elamipretide exposure” value is given as “increased”. For the same molecule, the “Fluo-4 fluorescence after elamipretide exposure” value in series [3] is recorded as “not in untransfected cells”. In addition, the “activation of the MRGPRX2 expressing cells (calcium mobilization)” value in series [4] is reported as “dose dependent activation”. The “effect on cells lacking the MRGPRX2 receptor (calcium mobilization)” value in series [5] is recorded as “no effect”. Also, the injection site reactions result in series [6] is given as “generally not severe”.
